Measured values published in PubChem BioAssay AID179 (DTP/NCI, 2004).
Values joined by “and” are separate entries in the source; they are usually repeats but may differ in a detail not shown here. Equal values may be shown once. Active and inactive are the calls of the source.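 How the source made its calls: active means compounds giving half or more protection of infected cells from virus-caused growth loss, again on retest; inactive means the rest.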 Where a SMILES comes first, the peptide text is derived from it. The star is where a group is joined. Cbz = O=C(OCc1ccccc1)*

System: CEM cells HIV-1 protection, formazan growth assay
Assay: NCI AIDS Antiviral Assay
Conditions: for IC50: measured here: growth of uninfected CEM cells
Method in brief: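 Protection of CEM cells against HIV-1 was scored from cell growth (soluble formazan) across five concentrations, with parallel uninfected cells. Lack of protection may reflect toxicity.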

## COc1ccc2nc3ccc(OC)cc3c(S(=O)(=O)Cc3ccc([N+](=O)[O-])cc3)c2c1
  EC50: > 200 µM
  IC50: > 200 µM

## Cc1ccc2c(c1)C1(C)c3cc(C)ccc3SP1S2 (centres undefined)
  EC50: > 12.6 µM
  IC50: > 12.6 µM

## C[C@]12CCC3[C@@H](CC[C@@H]4c5nonc5CC[C@]34C)C1C/C(=N/O)C2=O (some centres undefined)
  EC50: > 105 µM
  IC50: 95.5 µM

## COc1cc(Nc2nc3ccc(C(F)(F)F)cc3nc2C(=O)O)cc(OC)c1OC
  EC50: > 200 µM
  IC50: 27.5 µM

## Cc1cc2c(c(C)c1O)C(C)(C)CN2C(=O)C(C)(C)C
  EC50: > 200 µM
  IC50: 74.1 µM

## CC1CCC2(OC1)OC1CC3C4CCC5CC(O)CCC5(C)C4CC(=O)OC3(C)C1C2C (centres undefined)
  outcome: inactive

## Cc1ccc(NC(=O)CC/C(CC(=O)C(C)(C)C)=N\NC(=O)C[n+]2ccccc2)cc1C
  EC50: > 75.9 µM
  IC50: > 75.9 µM

## CC1CCC2[C@@H](C)COC3O[C@]4(C)CCC1C32OO4 (some centres undefined)
  EC50: > 339 µM
  IC50: 302 µM

## O=C(c1ccco1)[N+]1=Cc2[nH]c3ccccc3c2CC1
  EC50: > 170 µM
  IC50: 97.7 µM

## COc1cc(Oc2nc3cc(F)c(F)cc3nc2-c2ccccc2)cc(OC)c1OC
  EC50: > 100 µM
  IC50: 35.5 µM

## N#CC(/C(CCC(=O)Nc1ccc(Cl)cc1)=N/NC(=O)c1cc2ccccc2cc1O)c1ccccc1 (centres undefined)
  EC50: > 51.3 µM
  IC50: 12.6 µM

## O=C(O)CSCc1cc2c(O)c(c1)Cc1cc(CSCC(=O)O)cc(c1O)Cc1cc(CSCC(=O)O)cc(c1O)Cc1cc(CSCC(=O)O)cc(c1O)C2
  EC50: > 22.4 µM
  IC50: > 22.4 µM

## O=[N+]([O-])c1cc([As](=O)(O)O)ccc1Cl
  EC50: > 200 µM
  IC50: > 200 µM

## CC(C)NC(=O)N(Nc1ccccc1)C(C)(C)C
  EC50: > 200 µM
  IC50: 110 µM

## O=C1c2ccccc2C(=O)N1C/C=N/NS(=O)(=O)c1ccc(F)cc1
  EC50: > 363 µM
  IC50: > 363 µM

## COC(=O)N/N=C(\C)c1sc(-c2nc(C)c(/C(C)=N/NC(=O)OC)s2)nc1C
  EC50: > 32.4 µM
  IC50: > 32.4 µM

## CCOC(=O)/C(=C\n1c(=S)[nH]c2ccccc21)C(=O)c1ccccc1
  EC50: > 200 µM
  IC50: > 200 µM

## O=C1Oc2cc3c(c4cccc1c24)OCN(c1ccc(Cl)cc1)C3
  EC50: > 8.13 µM
  IC50: > 8.13 µM

## CC(C)(O)/C=C/C(=O)[C@](C)(O)[C@H]1[C@H](O)C[C@@]2(C)[C@@H]3CC=C4[C@@H](C=C(O)C(=O)C4(C)C)[C@]3(C)C(=O)C[C@]12C
  EC50: > 0.2 µM
  IC50: 0.0324 µM

## Oc1cc(O)cc(/C=C/c2ccc(O)c(O)c2)c1
  outcome: inactive

## Clc1ccc(Cl)c(N=Nc2cc3c4c(c2)CCN4CCC3)c1
  EC50: > 100 µM
  IC50: > 100 µM

## O=NNc1ccc(S(=O)(=O)c2ccc(NN=O)cc2)cc1
  outcome: inactive

## O=c1oc2ccccc2c(O)c1Cc1c(O)c2ccccc2oc1=O
  EC50: > 200 µM
  IC50: 55 µM and > 200 µM

## CCOC(=O)CCC(NC(=O)OCc1ccccc1)C(=O)NC(CC(=O)OC)C(=O)NC(CC(=O)OC)C(=O)NC(CCC(=O)OCC)C(=O)OCC (centres undefined) (Cbz-E(OEt)D(OMe)D(OMe)E(OEt)-OEt; configuration not given here)
  EC50: > 50.1 µM
  IC50: > 50.1 µM

## O=C(NCCCNCCNC(=O)c1cc(-c2ccccc2)nc2ccccc12)c1cc(-c2ccccc2)nc2ccccc12
  EC50: > 20 µM
  IC50: 3.02 µM

## CCc1cc(Cc2cc(CC)c(NC(=O)C(=O)CC(=O)c3sc(-c4cccnc4)nc3C)c(CC)c2)cc(CC)c1NC(=O)C(=O)CC(=O)c1sc(-c2cccnc2)nc1C
  EC50: > 105 µM
  IC50: > 105 µM

## NCCCn1c(Cl)nc2ccccc21
  EC50: > 200 µM
  IC50: > 200 µM

## O=c1[nH]c2ccc(Cl)cc2o1
  EC50: 182 µM
  IC50: > 200 µM

## CCNC(=O)N(CC)CN(CC)C(=O)NCC
  EC50: > 182 µM
  IC50: 95.5 µM

## CN1C/C(=C\c2cccs2)C2=NN(c3ccccc3)C(c3cccs3)C2C1 (centres undefined)
  EC50: > 200 µM
  IC50: 10.7 µM

## O=[N+]([O-])c1ccc(C2N3CCCCC3[C@@H]3c4[nH]c5ccccc5c4CCN23)cc1 (some centres undefined)
  EC50: > 34.7 µM
  IC50: > 34.7 µM

## COc1ccccc1/C=C(/C(C)=O)C(=O)c1ccccc1
  EC50: > 25.7 µM
  IC50: > 25.7 µM

## COc1cccc(NC(=O)CSc2nnc(-c3ccc(N=Cc4ccc(Cl)cc4)cc3)o2)c1
  EC50: > 75.9 µM
  IC50: 25.1 µM

## Cc1[nH]nc(N)c1C#N
  EC50: > 200 µM
  IC50: 191 µM

## Clc1ccccc1C(SCc1ccccc1)SCc1ccccc1
  EC50: > 200 µM
  IC50: 195 µM

## CC1(C)N=C(c2ccccn2)C(c2ccccn2)=NC1(C)C
  EC50: > 851 µM
  IC50: 661 µM

## Cc1ccc(S(=O)(=O)c2ccc([N+](=O)[O-])cc2)cc1
  outcome: inactive

## CC(C)(c1ccc(Oc2ccc(C#N)c(C#N)c2)cc1)c1ccc(Oc2ccc(C#N)c(C#N)c2)cc1
  EC50: > 10.7 µM
  IC50: > 10.7 µM

## CC(C)(C)CC(C)(C)c1ccc(OCCOCC[N+](C)(C)Cc2ccccc2)cc1
  outcome: inactive

## O=C1C2C=CC1C1C3OC3C(=O)C21 (centres undefined)
  EC50: > 708 µM
  IC50: > 708 µM

## O=[N+]([O-])/C(C(Cl)=C(Cl)Cl)=C(/Sc1ccccc1)N1CCOCC1
  EC50: > 200 µM
  IC50: 2.63 µM

## Nc1o[nH]c(=O)c1C1CCCCC1
  EC50: > 200 µM
  IC50: > 200 µM

## O=C(C/C(=N\NC(=O)C[n+]1ccccc1)C(=O)Nc1nc2ccc([N+](=O)[O-])cc2s1)CC(c1ccccc1)c1c(O)c2ccccc2oc1=O (centres undefined)
  EC50: > 2.75 µM
  IC50: > 2.75 µM

## O=C(O)CCCCCCC[C@H]1S[C@H]1CCCCCCO
  outcome: inactive

## CC1(C)CC(=O)CC(C)(C)ON1
  outcome: inactive

## CCN(CC)C(=O)N[C@@H](CC(C)C)C(=O)NC
  EC50: > 200 µM
  IC50: > 200 µM

## O=C(O)CCC(=O)NCCNC(=O)CCC(=O)O
  EC50: > 955 µM
  IC50: > 955 µM

## Nc1nc(N)c(N=O)c(N)n1
  EC50: > 200 µM
  IC50: 170 µM

## CC(=O)Oc1c2occc2cc2ccc(=O)oc12
  EC50: > 72.4 µM
  IC50: > 72.4 µM

## COc1ccc(-c2c(C#N)c(N)n(C3OC(CO)C(O)C(O)C3O)c(=S)c2C#N)cc1 (centres undefined)
  EC50: > 200 µM
  IC50: 95.5 µM and 129 µM

## Cn1c(=O)c2[nH]c(=O)c(C(CO)C(=O)c3ccccc3)nc2n(C)c1=O (centres undefined)
  EC50: > 200 µM
  IC50: 9.55 µM

## COC(=O)CSSCc1ccccc1
  EC50: > 200 µM
  IC50: 5.25 µM

## CC1(/C=C/CCSc2ccccc2)CC(=O)C2CC1C2(C)C (centres undefined)
  EC50: > 200 µM
  IC50: 7.94 µM

## O=P1(c2ccccc2)C(c2ccccc2)CCC1c1ccccc1 (centres undefined)
  EC50: > 200 µM
  IC50: 85.1 µM

## COC(=O)CSc1n[nH]c(-c2ccc(O)c([N+](=O)[O-])c2)n1
  EC50: > 115 µM
  IC50: > 115 µM

## Clc1ccc(Nc2ncco2)cc1Cl
  EC50: > 200 µM
  IC50: 107 µM

## CCCCCCSc1nc(COC(=O)NC)c(COC(=O)NC)n1C
  EC50: > 200 µM
  IC50: > 200 µM

## Nc1ccccc1SSc1ccccc1N
  EC50: > 200 µM
  outcome: inactive
  IC50: 25.1 µM and 5.37 µM

## O=C(Nc1ccccc1C(=O)NCc1ccccc1)/C(=C/c1ccccc1O)NC(=O)c1ccccc1
  outcome: inactive

## NC(=O)CC(NC(=O)c1ccccc1SC(=O)CCCC[n+]1ccccc1)C(N)=O (centres undefined)
  EC50: 32.4 µM
  IC50: > 200 µM

## CCN(CC)CCNc1c(OC)c(OC)cc2nccnc12
  EC50: > 200 µM
  IC50: 64.6 µM

## c1cnc2c(c1)Sc1ncccc1S2
  EC50: > 115 µM
  IC50: 51.3 µM

## CC1(C)CC(=O)CC(=Nc2ccc([N+](=O)[O-])cc2)C1
  EC50: > 52.5 µM
  IC50: > 52.5 µM
